Measured values taken from patent US20120220567A1, “BENZO-FUSED OXAZEPINE COMPOUNDS AS STEAROYL-COENZYME A DELTA-9 DESATURASE INHIBITORS” (priority 2009, published 2012).

Molecular target: T1, SCD-1 (Homo sapiens, UniProt O00767)
T1 construct: 50 μg of protein from a HepG2 cell P2 pellet; endogenous in cells; host or cells: HepG2 cells (P2 pellet)
T1 sequence (O00767 1-359): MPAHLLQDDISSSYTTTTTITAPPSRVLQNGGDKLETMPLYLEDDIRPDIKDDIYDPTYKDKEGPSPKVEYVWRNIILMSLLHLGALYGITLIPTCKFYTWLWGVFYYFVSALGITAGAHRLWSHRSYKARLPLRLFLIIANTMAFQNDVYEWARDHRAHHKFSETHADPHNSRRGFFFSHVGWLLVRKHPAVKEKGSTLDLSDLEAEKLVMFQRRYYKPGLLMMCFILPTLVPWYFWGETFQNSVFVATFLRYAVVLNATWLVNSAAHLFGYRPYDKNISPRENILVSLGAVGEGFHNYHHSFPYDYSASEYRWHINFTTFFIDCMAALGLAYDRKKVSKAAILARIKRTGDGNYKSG
Experiment: Stearoyl-CoA desaturase assay (HepG2 cell P2 pellet)
Format: biochemical
Details: Table 2, compounds of formula (Ib); protein from HepG2 cell P2 pellet, 20 μM stearoyl-CoA, 15 min at 25° C.; read-out: Ave IC50
Method: Stearoyl-CoA desaturase assays were performed in according to Talamo and Bloch. […] Assays were run in triplicate in 100-μl volumes of 100 mM TrisHCl, pH 7.3, containing 20 μM stearoyl-CoA, 2 mM β-NADH, and 50 μg of protein from a HepG2 cell P2 pellet. Since SCD-1 is the only isoform of SCD expressed in these cells, the assay is specific for SCD-1 with these cells as the source of enzyme. Reaction mixtures were incubated fifteen minutes at 25° C. and reactions were then stopped with a volume of trichloroacetic acid giving a final concentration of 0.2%. After five minutes, a 90-μl volume was transferred to a Millipore Multiscreen HTS 96-well filtration plate (MSHVN4B50) containing 125 μl of 10% charcoal in each well, to which vacuum had been previously applied. Plates were shaken fifteen minutes and then filtered into a collection plate. Fifty-μI volumes of filtrate were transferred to another plate containing 150 μl of MicroScint 40 for counting on a TopCount scintillation counter.

Row | IC50 [nM] | Compound
1 | 500 to 10000 | CC(C)(C)c1ccc(CN2CCC3(CCN(c4ncc(C(=O)NCCCCCC(=O)O)s4)CC3)Oc3c(F)cccc32)cc1 [Compound 124]
2 | 500 to 10000 | CC(C)(C)OC(=O)CCNC(=O)c1cnc(N2CCC3(CC2)CCN(Cc2ccc(C(C)(C)C)cc2)c2ccccc2O3)s1 [Compound 125]
3 | 0.5 to 49 | CC(C)(C)c1ccc(CN2CCC3(CCN(c4ncc(C(=O)NC[C@H](O)CO)s4)CC3)Oc3ccccc32)cc1 [Compound 126]
4 | 0.5 to 49 | N#Cc1cnc(N2CCC3(CC2)CCN(Cc2cccc(C(F)(F)F)c2)c2ccccc2O3)s1 [Compound 127]
5 | 0.5 to 49 | O=C(O)CCNC(=O)c1cnc(N2CCC3(CC2)CCN(Cc2cccc(C(F)(F)F)c2)c2ccccc2O3)s1 [Compound 129]
6 | 0.5 to 49 | CC(C)(C)c1ccc(CN2CCC3(CCN(c4ncc(C(=O)NCCC(=O)O)s4)CC3)Oc3ccccc32)cc1 [Compound 130]
7 | 0.5 to 49 | O=C(NCCCO)c1cnc(N2CCC3(CC2)CCN(Cc2cccc(C(F)(F)F)c2)c2cccc(F)c2O3)s1 [Compound 131]
8 | 0.5 to 49 | O=C(NC[C@H](O)CO)c1cnc(N2CCC3(CC2)CCN(Cc2cccc(C(F)(F)F)c2)c2cccc(F)c2O3)s1 [Compound 132]
9 | 0.5 to 49 | O=C(O)CCNC(=O)c1cnc(N2CCC3(CC2)CCN(Cc2cccc(C(F)(F)F)c2)c2cccc(F)c2O3)s1 [Compound 133]
10 | 0.5 to 49 | CC(C)(C)c1ccc(CN2CCC3(CCN(c4ncc(C(=O)NCCCO)s4)CC3)Oc3ccccc32)cc1 [Compound 134]
11 | 50 to 499 | CC(C)(C)c1ccc(CN2CCC3(CCN(c4ncc(-c5cncnc5)s4)CC3)Oc3ccccc32)cc1 [Compound 135]
12 | 0.5 to 49 | O=C(O)CNC(=O)c1cnc(N2CCC3(CC2)CCN(Cc2cccc(C(F)(F)F)c2)c2ccccc2O3)s1 [Compound 136]
13 | 500 to 10000 | CC(C)(C)c1ccc(CN2CCC3(CCN(c4ncc(-c5ccc(C#N)cc5)s4)CC3)Oc3ccccc32)cc1 [Compound 137]
14 | 500 to 10000 | CC(C)(C)c1ccc(CN2CCC3(CCN(c4ncc(-c5ccccc5)s4)CC3)Oc3ccccc32)cc1 [Compound 138]

Same assay, conditions: Table 3, compounds of formula (Ic); protein from HepG2 cell P2 pellet, 20 μM stearoyl-CoA, 15 min at 25° C.; read-out: Ave IC50

Row | Compound | IC50 [nM]
15 | COC(=O)c1ccc(N2CCC3(CC2)CCN(Cc2ccc(C(C)(C)C)cc2)c2ccccc2O3)nn1 [Compound 139] | 500 to 10000
16 | CC(C)(C)c1ccc(CN2CCC3(CCN(c4ccc(C(=O)NCCC5CC5)nn4)CC3)Oc3ccccc32)cc1 [Compound 140] | 0.5 to 49
17 | COC(=O)c1ccc(N2CCC3(CC2)CCN(Cc2ccc(C(C)(C)C)cc2)c2cccc(F)c2O3)nc1 [Compound 143] | 50 to 499
18 | CC(C)(C)c1ccc(CN2CCC3(CCN(c4ccc(C(=O)NCCc5ccncc5)nn4)CC3)Oc3c(F)cccc32)cc1 [Compound 144] | 0.5 to 49
19 | CC(C)(C)c1ccc(CN2CCC3(CCN(c4ccc(C(=O)O)cn4)CC3)Oc3c(F)cccc32)cc1 [Compound 145] | 50 to 499
20 | CC(C)(C)c1ccc(CN2CCC3(CCN(c4ccc(C(=O)NCCc5c[nH]cn5)cn4)CC3)Oc3c(F)cccc32)cc1 [Compound 148] | 500 to 10000
21 | CC(C)(C)c1ccc(CN2CCC3(CCN(c4ccc(C(=O)NCCC5CC5)nn4)CC3)Oc3c(F)cccc32)cc1 [Compound 150] | 50 to 499
22 | O=C(NCCC1CC1)c1ccc(N2CCC3(CC2)CCN(Cc2cccc(C(F)(F)F)c2)c2ccccc2O3)nn1 [Compound 151] | 0.5 to 49
23 | CN(C)CCNC(=O)c1ccc(N2CCC3(CC2)CCN(Cc2cccc(C(F)(F)F)c2)c2ccccc2O3)nn1 [Compound 154] | 500 to 10000
24 | O=C(NCCc1ccccc1)c1ccc(N2CCC3(CC2)CCN(Cc2cccc(C(F)(F)F)c2)c2ccccc2O3)nn1 [Compound 155] | 0.5 to 49
25 | CCCCNC(=O)c1ccc(N2CCC3(CC2)CCN(Cc2cccc(C(F)(F)F)c2)c2ccccc2O3)nn1 [Compound 156] | 0.5 to 49
26 | CCCNC(=O)c1ccc(N2CCC3(CC2)CCN(Cc2cccc(C(F)(F)F)c2)c2ccccc2O3)nn1 [Compound 157] | 50 to 499
27 | CC(C)CNC(=O)c1ccc(N2CCC3(CC2)CCN(Cc2cccc(C(F)(F)F)c2)c2ccccc2O3)nn1 [Compound 158] | 50 to 499
28 | CC(C)(C)CCNC(=O)c1ccc(N2CCC3(CC2)CCN(Cc2cccc(C(F)(F)F)c2)c2ccccc2O3)nn1 [Compound 159] | 500 to 10000
29 | CC(C)CCNC(=O)c1ccc(N2CCC3(CC2)CCN(Cc2cccc(C(F)(F)F)c2)c2ccccc2O3)nn1 [Compound 160] | 50 to 499
30 | O=C(NCCCO)c1ccc(N2CCC3(CC2)CCN(Cc2cccc(C(F)(F)F)c2)c2ccccc2O3)nn1 [Compound 161] | 50 to 499
31 | O=C(NCCc1c[nH]cn1)c1ccc(N2CCC3(CC2)CCN(Cc2cccc(C(F)(F)F)c2)c2ccccc2O3)nn1 [Compound 162] | 0.5 to 49
32 | O=C(NCCc1cccnc1)c1ccc(N2CCC3(CC2)CCN(Cc2cccc(C(F)(F)F)c2)c2ccccc2O3)nn1 [Compound 163] | 0.5 to 49
33 | NC(=O)c1ccc(N2CCC3(CC2)CCN(Cc2cccc(C(F)(F)F)c2)c2ccccc2O3)nn1 [Compound 164] | 0.5 to 49
34 | O=C(NCCc1ccncc1)c1ccc(N2CCC3(CC2)CCN(Cc2cccc(C(F)(F)F)c2)c2ccccc2O3)nn1 [Compound 165] | 0.5 to 49

The remaining lines, values ahead:

Row | IC50 [nM] | Compound
35 | 0.5 to 49 | COC(=O)CCNC(=O)c1ccc(N2CCC3(CC2)CCN(Cc2cccc(C(F)(F)F)c2)c2ccccc2O3)nn1 [Compound 166]
36 | 50 to 499 | CCNC(=O)c1ccc(N2CCC3(CC2)CCN(Cc2cccc(C(F)(F)F)c2)c2ccccc2O3)nn1 [Compound 167]
37 | 50 to 499 | O=C(NCC1CC1)c1ccc(N2CCC3(CC2)CCN(Cc2cccc(C(F)(F)F)c2)c2ccccc2O3)nn1 [Compound 168]
38 | 0.5 to 49 | O=C(NCCC1CC1)c1ccc(N2CCC3(CC2)CCN(Cc2cccc(C(F)(F)F)c2)c2ccccc2O3)nc1 [Compound 169]
39 | 0.5 to 49 | COC(=O)c1ccc(N2CCC3(CC2)CCN(Cc2cccc(C(F)(F)F)c2)c2ccccc2O3)nn1 [Compound 170, methyl 6-(5-(3-(trifluoromethyl)benzyl)-4,5-dihydro-3H-spiro-[benzo[b][1,4]oxazepine-2,4′-piperidine]-1′-yl)pyridazine-3-carboxylate]
40 | 500 to 10000 | O=C(NCCC1CC1)c1ccc(N2CCC3(CC2)CCN(Cc2cccc(C(F)(F)F)c2)c2ccccc2O3)cc1 [Compound 171]
41 | 500 to 10000 | O=C(O)c1ccc(N2CCC3(CC2)CCN(Cc2cccc(C(F)(F)F)c2)c2ccccc2O3)nn1 [Compound 172, 6-(5-(3-(trifluoromethyl)benzyl)-4,5-dihydro-3H-spiro[benzo-[b][1,4]oxazepine-2,4′-piperidine]-1′-yl)pyridazine-3-carboxylic Acid]
42 | 0.5 to 49 | COC(=O)CCNC(=O)c1ccc(N2CCC3(CC2)CCN(Cc2cccc(C(F)(F)F)c2)c2cccc(F)c2O3)nn1 [Compound 173]
43 | 0.5 to 49 | O=C(NCCc1ccncc1)c1ccc(N2CCC3(CC2)CCN(Cc2cccc(C(F)(F)F)c2)c2cccc(F)c2O3)nn1 [Compound 174]
44 | 0.5 to 49 | O=C(NCCC1CC1)c1ccc(N2CCC3(CC2)CCN(Cc2cccc(C(F)(F)F)c2)c2cccc(F)c2O3)nn1 [Compound 175]
45 | 0.5 to 49 | CCc1ccc(CN2CCC3(CCN(c4ccc(C(=O)NCCC5CC5)nn4)CC3)Oc3ccccc32)cc1 [Compound 176]
46 | 50 to 499 | CCc1ccc(CN2CCC3(CCN(c4ccc(C(=O)NCCC5CC5)cn4)CC3)Oc3ccccc32)cc1 [Compound 177]
47 | 0.5 to 49 | CC(C)Oc1ccc(CN2CCC3(CCN(c4ccc(C(=O)NCCC5CC5)nn4)CC3)Oc3ccccc32)cc1 [Compound 178]
48 | 0.5 to 49 | CC(C)Oc1ccc(CN2CCC3(CCN(c4ccc(C(N)=O)nn4)CC3)Oc3ccccc32)cc1 [Compound 179]
49 | 0.5 to 49 | O=C(NCCC1CC1)c1ccc(N2CCC3(CC2)CCN(Cc2cc4ccccc4o2)c2ccccc2O3)nn1 [Compound 180]
50 | 0.5 to 49 | CC(C)c1ccc(CN2CCC3(CCN(c4ccc(C(=O)NCCC5CC5)nn4)CC3)Oc3ccccc32)cc1 [Compound 181]
51 | 0.5 to 49 | CC(C)c1ccc(CN2CCC3(CCN(c4ccc(C(N)=O)nn4)CC3)Oc3ccccc32)cc1 [Compound 182]
52 | 0.5 to 49 | O=C(NCCC1CC1)c1ccc(N2CCC3(CC2)CCN(Cc2ccc(Oc4ccccc4)cc2)c2ccccc2O3)nn1 [Compound 183]
53 | 0.5 to 49 | NC(=O)c1ccc(N2CCC3(CC2)CCN(Cc2ccc(Oc4ccccc4)cc2)c2ccccc2O3)nn1 [Compound 184]
